Assay results reported in patent US6046218A, “Pyridine derivative and medicament containing the same as an effective ingredient” (SS Pharmaceutical Co., Ltd., priority 1996, dated 2000).
Structures can show the parent of a compound that is named as a salt.

Tests used:
IL-5 production = assay: Test 3: inhibition of IL-5 production in human PBMC stimulated with ConA; assay type: cell-based; conditions: 10^-6 M, 10 μg/ml ConA, 48 hours, read-out: Inhibition rate of IL-5 production
Method in brief: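 Human PBMC from a normal volunteer, 1×10^6 cells/ml in AIM-V, stimulated with 10 μg/ml ConA alongside compound and incubated 48 h at 37 °C, 5% CO2. Supernatant IL-5 quantified by EIA; inhibition rate calculated from a formula.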

IgE production = assay: Test 4: inhibition of IgE production by spleen cells of orally treated sensitized mice; assay type: in vivo, Balb/c mouse; conditions: Mus musculus, po, 100 mg/kg orally once a day, Day 1 to Day 10, DNP-BSA 5 μg/ml, 24 hours, read-out: Inhibition rate of IgE production
Procedure: (§1) Test 4: Test on the inhibition of IgE production
(§2) To a Balb/c mouse, the DNP-labeled ascaris antigen (5 μg) and Alum (1 mg) were intraperitoneally administered on Day 1 and Day 6 to sensitize the mouse with the antibody. From Day 1 to Day 10, a medicament was orally administered at a dose of 100 mg/kg once a day. On Day 11, the mouse was subjected to splenectomy and the spleen so obtained was untangled into its cells. To 5×10^7 cells/ml of the spleen cells so obtained, DNP-BSA (5 μg/ml) was added, followed by incubation at 37° C. for 24 hours. After incubation, 100 μl of the supernatant were collected and subjected to the measurement an IgE measuring kit (Yamasa Co., Ltd.). In order to determine IgG1, IgG2a and IgM, the absorbance of the incubated supernatant was measured by the EIA method and provided for comparison. The inhibition rate of IgE production was calculated according to the below-described formula. Inhibition rates of the IgG1, IgG2a and IgM production were similarly calculated, respectively. [formula]

IgM production = assay: Test 4 (comparison): inhibition of IgM production; assay type: in vivo, Balb/c mouse; conditions: 100 mg/kg orally once a day; for inhibition at 100 mg/kg: Mus musculus, po, Day 1 to Day 10, spleen cells, DNP-BSA 5 μg/ml, 24 hours, read-out: Inhibition rate of IgM production
Procedure: as §1, §2

IgG1 production = assay: Test 4 (comparison): inhibition of IgG1 production; assay type: in vivo, Balb/c mouse; conditions: 100 mg/kg orally once a day; for inhibition at 100 mg/kg: Mus musculus, po, Day 1 to Day 10, spleen cells, DNP-BSA 5 μg/ml, 24 hours, read-out: Inhibition rate of IgG1 production
Procedure: as §1, §2

IgG2a production = assay: Test 4 (comparison): inhibition of IgG2a production; assay type: in vivo, Balb/c mouse; conditions: 100 mg/kg orally once a day; for inhibition at 100 mg/kg: Mus musculus, po, Day 1 to Day 10, spleen cells, DNP-BSA 5 μg/ml, 24 hours, read-out: Inhibition rate of IgG2a production
Procedure: as §1, §2

IL-4 production [1] = assay: Test 1: inhibition of IL-4 production in human T-cell strain ATL-16T(-) stimulated with PMA (R&D Systems EIA); assay type: cell-based; conditions: ATL-16T(-) 1×10^6 cells/0.5 ml/well, 20 nM PMA, 48 hours, read-out: Inhibition rate of IL-4 production; for inhibition at 10 µM: 10^-5 M; for inhibition at 1 µM: 10^-6 M; for inhibition at 0.1 µM: 10^-7 M; for inhibition at 0.01 µM: 10^-8 M
Procedure: Test 1: Test on the inhibition of IL-4 production
(§3) Into individual wells of a 48-well microplate, the human T-cell strain ATL-16T(-) was poured at a concentration of 1×10^6 cells/0.5 ml/well (n=3), followed by the addition of a stimulator (20 nM of PMA) and a medicament at the same time. The resulting mixture was incubated in 5% CO2 at 37° C. for 48 hours. After incubation, 100 μl of the supernatant were collected and subjected to measurement by a human IL-4 EIA kit (R&D SYSTEMS, INC.). The inhibition rate was calculated according to the following formula. [formula]

IL-4 production [2] = assay: Test 2: inhibition of IL-4 production in human T-cell strain ATL-16T(-) stimulated with PMA (Bio Source EIA); assay type: cell-based; conditions: ATL-16T(-) 5×10^5 cells/0.5 ml/well, 20 nM PMA, 48 hours, read-out: Inhibition rate of IL-4 production; for inhibition at 10 µM: 10^-5 M; for inhibition at 1 µM: 10^-6 M; for inhibition at 0.1 µM: 10^-7 M; for inhibition at 0.01 µM: 10^-8 M
Procedure: Test 2: Test on the inhibition of IL-4 production
as §3, with “5×10^5” for “1×10^6”, “50” for “100”, “(BIO SOURCE,” for “(R&D SYSTEMS,”

SMILES	inhibition at 1 µM (IL-5 production) [%]	inhibition at 100 mg/kg (IgE production) [%]	inhibition at 100 mg/kg (IgM production) [%]	inhibition at 100 mg/kg (IgG1 production) [%]	inhibition at 100 mg/kg (IgG2a production) [%]	inhibition at 10 µM (IL-4 production [1]) [%]	inhibition at 1 µM (IL-4 production [1]) [%]	inhibition at 0.1 µM (IL-4 production [1]) [%]	inhibition at 0.01 µM (IL-4 production [1]) [%]	inhibition at 10 µM (IL-4 production [2]) [%]	inhibition at 1 µM (IL-4 production [2]) [%]	inhibition at 0.1 µM (IL-4 production [2]) [%]	inhibition at 0.01 µM (IL-4 production [2]) [%]	effects on the production of IgM (IgM production; in words)	effects on the production of IgG1 (IgG1 production; in words)	effects on the production of IgG2a (IgG2a production; in words)
COc1cnc(/C=C/C(=O)c2ccccc2)cc1OC [Ex. 1, 4,5-dimethoxy-2-(3-oxo-3-phenyl-1-propenyl)pyridine]	95.3	42	-8	1.6	4.6	97.5	87.9	80.3	59.9							
CCCCCC(=O)/C=C/c1cc(OCCCCCC(=O)OC)c(OC)cn1 [Ex. 15, Methyl 6-[5-methoxy-2-(3-oxo-1-octenyl)-4-pyridyloxy]hexanoate]	79.2	23.5	-5.4	9.9	4.6	76.8	58.9	55.9	49.1							
COc1cnc(/C=C/C(=O)c2ccccc2)cc1O [Ex. 19, 4-hydroxy-5-methoxy-2-(3-oxo-3-phenyl-1-propenyl)-pyridine]	94.8	30.6	1.2	8	0.9	106	98.1	95.1	83.8							
O=C(/C=C/c1cc(O)c(O)cn1)c1ccccc1 [Ex. 20, 4,5-Dihydroxy-2-(3-oxo-3-phenyl-1-propenyl)pyridine]	92.8	23.7	-6.2	7.4	1.3	97.9	96.4	90.6	84							
CCOC(=O)CCCOc1cc(/C=C/C(=O)c2ccccc2)ncc1OC [Ex. 44, Ethyl 4-[5-methyoxy-2-(3-oxo-3-phenyl-1-propenyl)-4-pyridyloxy]butanoate]	90.6	26.7	-4.2	8	-2.2	89.1	86.1	56.2	46.5							
CCOC(=O)CCCCCOc1cc(/C=C/C(=O)C2CCCCC2)ncc1OC [Ex. 77, Ethyl 6-[2-(3-cyclohexyl-3-oxo-1-propenyl)-5-methoxy-4-pyridyloxy]hexanoatehydrochloride]	82	55.8	1.2	-6.3	-3.9					68.6	66	65	64.5	No effects were observed	No effects were observed	No effects were observed
CCOC(=O)CCCOc1cc(/C=C/C(=O)c2c(OC)cccc2OC)ncc1OC [Ex. 86, Ethyl 4-[5-methoxy-2-(3-(2,6-dimethoxyphenyl)-3-oxo-1-propenyl)-4-pyridyloxy]butanoate hydrochloride]	71.9	35.9	-2.7	-1.1	6.2					94.6	80.1	77.6	73.6			
CCOC(=O)CCCOc1cc(/C=C/C(=O)c2cc(OC)ccc2OC)ncc1OC [Ex. 87, Ethyl 4-[5-methoxy-2-(3-(2,5-dimethoxyphenyl)-3-oxo-1-propenyl)-4-pyridyloxy]butanoate hydrochloride]	90.2	30.5	-0.1	-3.4	-8.1					78.3	73.4	72.2	69.3			
CCOC(=O)CCCCCOc1cc(/C=C/C(=O)c2cc(OC)ccc2OC)ncc1OC [Ex. 88, Ethyl 6-[5-methoxy-2-(3-(2,5-dimethoxyphenyl)-3-oxo-1-propenyl)-4-pyridyloxy]hexanoate hydrochloride]	61.6	22.7	-4.2	-6.9	8.6					74.2	74.4	71.7	68			
CCOC(=O)CCCOc1cc(/C=C/C(=O)c2ccc(OC)cc2OC)ncc1OC [Ex. 91, Ethyl 4-[5-methoxy-2-(3-(2,4-dimethoxyphenyl)-3-oxo-1-propenyl)-4-pyridyloxy]butanoate hydrochloride]	85.8									93.4	62.3	62.2	59.8			
CCOC(=O)CCCCOc1cc(/C=C/C(=O)c2ccccc2OC)ncc1OC [Ex. 95, Ethyl 5-[5-methoxy-2-(3-(2-methoxyphenyl)-3-oxo-1-propenyl)-4-pyridyloxy]pentanoate hydrochloride]	65.6									105	60.9	59.2	57.3			
CCOC(=O)CCCCCCCCCCCOc1cc(/C=C/C(=O)c2ccccc2OC)ncc1OC [Ex. 97, Ethyl 12-[5-methoxy-2-(3-(2-methoxyphenyl)-3-oxo-1-propenyl)-4-pyridyloxy]dodecanoate hydrochloride]	93.9	30.5	1.9	5.6	-9.5											
COC(=O)c1ccc(COc2cc(/C=C/C(=O)c3ccccc3OC)ncc2OC)cc1 [Ex. 99]	80.3	34.8	8.5	6.1	2.7											
CCOC(=O)CCCCCOc1cc(/C=C/C(=O)c2ccsc2)ncc1OC [Ex. 100, Ethyl 6-[5-methoxy-2-(3-oxo-3-(3-thienyl)-1-propenyl)-4-pyridyloxy]hexanoate hyd rochloride]	82.6	23.9	-9	-4	-5.1											
